Data on 1 compound can be found in paper PMC9405123, “Design, Synthesis and Mechanistic Studies of Novel Isatin-Pyrazole Hydrazone Conjugates as Selective and Potent Bacterial MetAP Inhibitors” (Antibiotics, 2022).

Converted amounts (≈) assume the structure as drawn. Where only a bound is given, the exact number is not on record here.

Test [1] relates to SH28. Kind of test: MIC on environmental MDR isolate (microdilution). As to conditions: Aeromonas caviae. In general terms: Dilution methods test growth across graded concentrations, often in twofold steps.
In test [2] the test system is JST78. Put plainly: MIC on environmental MDR isolate (microdilution). To be noted: Escherichia coli.
In test [3] the test system is K. pneumoniae. Put plainly: Growth inhibition screening (broth dilution). It is filed as cell-based, Klebsiella pneumonia. The method in brief: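 NCCLS broth dilution in nutrient broth with compounds from DMSO at a final 250 µg/mL. About 2.5 × 10^5 cells/mL were inoculated and incubated overnight at 37 °C. Growth was measured as turbidity at 590 nm.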
The subject of test [4] is JST68. Kind of test: MBC on environmental MDR isolate. To be noted: Escherichia coli.
Test [5] deals with E. coli. Kind of test: Growth kinetics. The test is classed as cell-based, Escherichia coli. On the procedure: Bacterial strains were tested as mentioned in Habib et al.. Briefly, ½ MIC, MIC and 2MIC values of PS9 were taken to assess the growth of bacterial strains whereas untreated cells and media were taken as positive and negative control, respectively.
In test [6] the test system is LG33. Kind of test: MIC on environmental MDR isolate (microdilution). To be noted: Enterobacter.
In test [7] the target is EfMetAP1a (Enterococcus faecalis, UniProt Q832M5). Kind of test: MetAP enzyme inhibition, Morrison Ki (Met-AMC fluorescence). The test is classed as biochemical. To be noted: Morrison Ki method.
Chain of EfMetAP1a (Q832M5 entry or part of it): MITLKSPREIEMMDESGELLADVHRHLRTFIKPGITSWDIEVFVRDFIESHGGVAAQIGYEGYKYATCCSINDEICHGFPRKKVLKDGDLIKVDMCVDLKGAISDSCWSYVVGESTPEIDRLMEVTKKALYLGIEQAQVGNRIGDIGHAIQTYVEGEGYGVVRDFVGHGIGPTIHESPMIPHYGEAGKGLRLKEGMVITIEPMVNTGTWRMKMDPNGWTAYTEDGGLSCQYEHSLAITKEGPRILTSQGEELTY

In general, MIC refers to the least concentration at which growth counts as inhibited. The inhibition is the drop in the measured response relative to a control, in per cent. Higher therefore signals a response far below the control. As usually defined, the MBC is the smallest concentration meeting the test's criterion for killing. A high value points to less potent killing. As a reminder, the Ki is a dissociation constant, usually derived from enzyme kinetics or from competition with a known ligand. On to `O=C1Nc2ccc(F)cc2/C1=N\NC(=O)c1cc(-c2cccc(Br)c2)n[nH]1` [PS9, (E)-3-(3-Bromophenyl)-N′-(5-Fluoro-2-Oxoindolin-3-Ylidene)-1H-Pyrazole-5-Carbohydrazide], for which the MIC was determined as 128 µg/mL (≈ 299 µM) in test [1], 1000 µg/mL (≈ 2340 µM) in test [2] and 1000 µg/mL (≈ 2340 µM) in test [6]. In addition, the inhibition at 250 µg/mL in test [3] (Klebsiella pneumoniae) is at least 94%. In test [3] (listed as C00009), the “% Growth Inhibition at 250 µg/mL” value is 94%. The MBC in test [4] came to 256 µg/mL (≈ 598 µM). In addition, the growth entry in test [5] (2MIC and MIC) is “no growth observed up to 24 h”. In test [5] (½ MIC), the “time after inoculation at which log phase was observed” value came to 6 h. This compound displayed a Ki in test [7] of 6.93 ± 0.45 µM.
